From PubChem BioAssay (NCI) come the findings set out here.

For orientation: TGI means the concentration giving total growth inhibition. Low values mean greater sensitivity of the cells, high ones lower sensitivity of the cells. For orientation: GI50 means the concentration giving 50% growth inhibition.

Several values for one entry are separate records, joined by “and”; a condition that tells them apart may be missing. Equal entries are not always repeated.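 In this assay, cells in 96-well plates receive the compound at five concentrations for 48 hours. Endpoints are linearly interpolated between the surrounding concentrations. At the GI50, growth is halved. The concentration for full growth arrest is given as TGI.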

What all share (assay): DTP human tumour cell line panel, 48 h
The subject of test [1] is 786-0 renal.
Test [2] has as its system A549 NSCLC.
For test [3], the system named is ACHN renal.
Test [4] has as its system DU-145 prostate.
The subject of test [5] is HL-60(TB) leukemia.
For test [6], the system named is HOP-92 NSCLC.
Test [7] deals with OVCAR-4 ovarian.
The test system of test [8] is SN12C renal.
For test [9], the system named is SNB-19 CNS.
Test [10] has as its system U251 CNS.

In the case of `O=C(Cn1ccnc1[N+](=O)[O-])N(CCO)CCO`, the TGI in test [1] was > 250 µM; in test [2], > 1250 µM; in [3], > 250 µM; in test [4], > 250 µM; in test [5], > 1250 µM; in test [6], > 1250 µM. The TGI in test [7], in [8], in test [9] and in test [10] was > 1250 µM in each case. Moreover, the GI50 is > 1250 µM in [2]; > 1250 µM in test [5]; > 250 µM in [6]; > 1250 µM in test [7]; > 1250 µM in test [8]; > 1250 µM in test [9]. In addition, the GI50 in test [10] is > 1250 µM.

For `C=CC1CC12C(=O)C1OC2(C)C2C(=O)c3ccccc3C(=O)C12` (configuration not stated), the GI50 in test [1] is > 52.5 µM; in [2], > 60 µM; in test [3], 57.3 µM; in test [4], 72.7 µM; in test [5], 0.691 µM; in test [6], > 77.6 µM. The GI50 is 31.5 µM in test [7], > 56.3 µM in test [8], > 47.7 µM in test [9] and 38.7 µM in test [10]. The TGI in [1] was > 100 µM; in test [2] it was > 100 µM; in test [3], > 100 µM; in test [4], > 100 µM; in [5] it was 2.59 µM; in [6], > 100 µM. The concentration for total growth inhibition (TGI) in [7] is > 100 µM; in test [8], > 100 µM; in test [9], > 84.7 µM; in test [10], > 100 µM.

Consider `Cn1cc(-c2cc3c(Nc4ccc(CC(=O)Nc5cc(C(C)(C)C)on5)cc4)ncnc3[nH]2)cn1`, for which the GI50 in test [1] was 0.995 µM and 0.536 µM; in [2], 2.42 µM and 2.84 µM; in test [3], 1.94 µM and 1.71 µM; in test [4] it was 0.83 µM and 0.491 µM; in test [5], 1.98 µM and 1.58 µM; in [6] it was 1.42 µM and 0.536 µM. Besides, the GI50 in test [7] is 0.592 µM and 0.547 µM; in test [8], 0.671 µM and 0.471 µM; in test [9], 0.492 µM and 0.399 µM; in test [10] it was 0.586 µM and 0.38 µM. For the same molecule, the TGI in [1] is 5.05 µM and 4.71 µM; in [2], 8.76 µM and 10.5 µM; in test [3], 7.36 µM and 6.4 µM; in test [4], 3.84 µM and 2.89 µM; in [5] it was 6.63 µM and 5.47 µM; in test [6], 11.8 µM and 4.39 µM. In addition, the TGI in test [7] was 4 µM and 5.17 µM; in test [8], 4.05 µM and 4.15 µM; in [9] it was 5.31 µM and 8.4 µM; in test [10] it was 5.84 µM and 6.41 µM.

Take `O=C(c1ccccc1)c1ccc(-c2ccc(O)cc2)cc1`: the GI50 in [1] was 17.8 µM; in test [2], 3.9 µM; in test [3] it was 6.88 µM; in test [4], 5.62 µM; in test [5] it was 1.89 µM; in [6], 5.63 µM. For the same molecule, the GI50 in test [7] was 5.87 µM; in test [8], 20.2 µM; in [9], 6.01 µM; in test [10] it was 3.69 µM. Moreover, the TGI was > 66.8 µM in test [1]; > 65.3 µM in test [2]; 36.3 µM in [3]; 29.4 µM in [4]; 11.1 µM in test [5]; 30.3 µM in [6]. Moreover, the TGI is > 100 µM in test [7], > 100 µM in [8], > 100 µM in test [9] and 20.1 µM in test [10].

On to `COC1=CC(c2ccc[nH]2)=N/C1=C\c1[nH]c(C)c(C(=O)CCC(=O)Oc2ccc3c(c2)CCC2C3CC[C@]3(C)C(=O)CC[C@@H]23)c1C` (some centres not stated), for which the GI50 in test [1] is 6 µM; in [2] it was 2.65 µM; in [3], 5.82 µM; in test [4], 1.58 µM; in test [5], 50.2 µM; in test [6], 2.09 µM. Further, the GI50 in test [7] is 13.1 µM; in test [8] it was 5.23 µM; in test [9] it was 17.7 µM; in test [10], 3.31 µM. For the same molecule, the TGI in test [1] was 39.1 µM; in test [2] it was > 100 µM; in [3], > 100 µM; in test [4] it was > 100 µM; in test [5] it was > 100 µM; in [6], 16.5 µM. Besides, the TGI in test [7] was > 100 µM; in test [8], > 100 µM; in test [9], > 100 µM; in [10], > 86.7 µM.

In the case of `O=C(NO)c1ccc(C(=O)NO)cc1`, the TGI in test [1], in [2], in test [3], in [4], in [5] and in test [6] was > 100 µM throughout. Besides, the TGI in test [7] was > 100 µM; in test [8] it was > 100 µM; in test [9], > 100 µM; in test [10], 35.7 µM.

On to `CN(C)c1c(Cl)c(=O)oc2c1ccc1nc(-c3ccccc3)sc12`, for which the TGI in test [1], in [2], in test [3], in [4], in test [5] and in [6] was > 100 µM each time. For the same molecule, the TGI in test [7], in test [8], in test [9] and in [10] was > 100 µM throughout.

In the case of `O=S(=O)(c1cccc(C(F)(F)F)c1)N1c2ccccc2-n2cccc2C1c1cccnc1` (configuration not stated), the TGI in test [1] was > 62.3 µM; in [2], > 56.4 µM; in test [3], > 74.1 µM; in [4], > 55.2 µM; in test [5] it was 28.3 µM; in test [6], > 67.7 µM. The TGI in [7] was > 48.4 µM; in test [8], > 62.3 µM; in test [9], > 72.9 µM; in test [10], > 53.1 µM.

For `O=C(CC12CC3CC(CC(C3)C1)C2)NCCOCCOCCNC(=O)c1cc2c(o1)C(=O)c1ccccc1C2=O`, the GI50 is 2.05 µM in [1]; 0.22 µM in [2]; 1.35 µM in test [3]; 0.225 µM in [4]; 1.22 µM in [5]; 2.26 µM in test [6]. Besides, the GI50 in test [7] is 0.839 µM; in [8], 0.595 µM; in test [9], 0.841 µM; in test [10], 1.37 µM. Further, the TGI was 4.7 µM in test [1]; 0.51 µM in test [2]; 2.72 µM in [3]; 0.457 µM in test [4]; 4.61 µM in [5]; 6.1 µM in test [6]. For the same molecule, the concentration for total growth inhibition (TGI) in test [7] stood at 2.08 µM; in test [8] it was 1.87 µM; in [9], 3.11 µM; in test [10] it was 2.81 µM.
